Among the data in patent US11696903B2, “Compounds and methods for scavenging dicarbonyl electrophiles” (VANDERBILT UNIVERSITY, priority 2019, dated 2023) are LG-histone adduct formation values, retold here.

The assay has as its system LG-histone adducts in A549 cells. Briefly: LG-lysyl adduct formation on histones in A549 cells (LC/ESI/MS/MS). Type of assay: cell-based, human. As to conditions: stimulated A549, 30, 300 or 1000 μM EtSA, 20 μM AA 1 h. The procedure: FIGS. 11A, 11B, 11C, 11D, 11E, and 11F are a series of graphs showing that LG-lysine adducts of histones are found in cells and tissue, dependent on COX-2 activity. RAW264.7 mouse macrophage (A) and A549 human lung carcinoma (C) cells were stimulated to express COX-2, then given 20 μM arachidonic acid (AA) or vehicle. A subgroup of cells was preincubated 45 min with 50 μM indomethacin. As a measure of COX activity, PGE2 was determined by GC/MS from cell media prior to lysis (B and D). Nuclei were isolated, and histones were extracted and digested to individual amino acids prior to LC/EST/MS/MS analysis. *, p<0.05; ***, p<0.001 by ANOVA followed by Tukey's post-test (n≥5). (E). Histones were extracted from nuclei of rat liver, and analyzed as above for LG-lactam adduct. COX-2 protein was analyzed by Western blotting and plotted against lactam adduct levels. Each point corresponds to 1 liver, and shown is the line of regression (r^2=0.7237). Pearson r=0.8507; two-tailed p=0.0152. […]
(A). […] Histone proteins were analyzed by LC/ESI/MS/MS for LG-lysyl lactam adduct, n=2. (B) Stimulated A549 cells were pretreated with 30, 300, or 1000 μM EtSA prior to 1 h with 20 μM AA, and histones analyzed for LG-lysyl adduct. *, p<0.05 by one-way ANOVA followed by Dunnett's multiple comparisons post-test (n=3-5). […] Media was analyzed by GC/MS for PGE2 (n=3). […]

As to `CCc1ccc(O)c(CN)c1` [EtHOBA, 5-ethyl-2-hydroxybenzylamine], the LG-histone adduct formation entry was “inhibited”.
